# Data from article PMC11345841, “Exploring 2-Sulfonylpyrimidine Warheads as Acrylamide Surrogates for Targeted Covalent Inhibition: A BTK Story” (Journal of Medicinal Chemistry, 2024).
# Read-outs that look alike come from different tables or passages of the source.
# Assays:
# CSK = target: T1, CSK (Homo sapiens, UniProt P41240); experiment: KINOMEscan ScanTK; format: binding
# T1 construct: purchased Eurofins DiscoverX KINOMEscan (scanTK)
# EPHB4 = target: T2, EPHB4 (Homo sapiens, UniProt P54760); experiment: KINOMEscan ScanTK; format: binding
# T2 construct: purchased Eurofins DiscoverX KINOMEscan (scanTK)
# T2 sequence (P54760 16-987): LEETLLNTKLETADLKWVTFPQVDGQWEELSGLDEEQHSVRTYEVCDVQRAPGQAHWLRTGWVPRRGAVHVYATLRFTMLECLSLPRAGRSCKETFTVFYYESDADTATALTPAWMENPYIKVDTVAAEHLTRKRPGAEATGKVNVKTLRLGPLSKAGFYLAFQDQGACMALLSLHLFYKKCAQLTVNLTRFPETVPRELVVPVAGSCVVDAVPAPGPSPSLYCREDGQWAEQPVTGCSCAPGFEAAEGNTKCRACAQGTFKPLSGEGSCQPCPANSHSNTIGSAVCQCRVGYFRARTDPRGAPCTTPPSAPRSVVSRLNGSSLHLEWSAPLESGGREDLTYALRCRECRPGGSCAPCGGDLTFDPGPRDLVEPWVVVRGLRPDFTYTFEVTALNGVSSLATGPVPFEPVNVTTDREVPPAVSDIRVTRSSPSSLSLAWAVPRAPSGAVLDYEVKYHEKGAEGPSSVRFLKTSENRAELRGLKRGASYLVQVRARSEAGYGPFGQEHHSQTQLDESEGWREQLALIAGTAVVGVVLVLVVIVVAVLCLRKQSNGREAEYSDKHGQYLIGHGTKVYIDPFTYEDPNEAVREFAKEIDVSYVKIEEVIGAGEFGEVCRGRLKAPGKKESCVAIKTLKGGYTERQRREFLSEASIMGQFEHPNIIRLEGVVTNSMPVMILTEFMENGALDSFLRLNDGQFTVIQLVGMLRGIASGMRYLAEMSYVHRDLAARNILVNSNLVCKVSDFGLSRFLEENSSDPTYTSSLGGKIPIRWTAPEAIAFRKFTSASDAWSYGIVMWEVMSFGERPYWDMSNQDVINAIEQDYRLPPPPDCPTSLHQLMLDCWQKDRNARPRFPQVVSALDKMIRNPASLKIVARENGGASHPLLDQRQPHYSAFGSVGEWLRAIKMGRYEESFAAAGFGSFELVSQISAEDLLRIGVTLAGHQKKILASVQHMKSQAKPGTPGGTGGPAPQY
# [1] = target: T3, JAK1(JH1domain-catalytic) (Homo sapiens, UniProt P23458); experiment: KINOMEscan ScanTK; format: binding
# T3 construct: JAK1(JH1domain-catalytic); purchased Eurofins DiscoverX KINOMEscan (scanTK)
# KIT(V559D) = target: T4, KIT(V559D) (Homo sapiens, UniProt P10721, V559D); experiment: KINOMEscan ScanTK; format: binding
# T4 construct: purchased Eurofins DiscoverX KINOMEscan (scanTK)
# BTK, full length (2–659) = BTK, full length (2–659) (Homo sapiens, UniProt Q06187); experiment: Kinact/Ki determination, PhosphoSens progress curve analysis; format: biochemical
# Method: Nonlinear regression was performed using the Solver algorithm in Excel. […] Two-step Kinact/Ki fits were extracted from the progress curve analysis of all compounds against BTK, enabling independent Kinact and Ki determinations.
# BTK = target: T5, BTK (Homo sapiens, UniProt Q06187); experiment: KINOMEscan ScanTK; format: binding; conditions: for remaining binding at 1 µM: BTK; for inhibition at 1 µM: ScanTK
# T5 construct: purchased Eurofins DiscoverX KINOMEscan (scanTK)
# EGFR(G719C) = target: T6, EGFR(G719C) (Homo sapiens, UniProt P00533, G719C); experiment: KINOMEscan ScanTK; format: binding
# T6 construct: purchased Eurofins DiscoverX KINOMEscan (scanTK)
# EGFR(L858R,T790M) = target: T7, EGFR(L858R,T790M) (Homo sapiens, UniProt P00533, L858R/T790M); experiment: KINOMEscan ScanTK; format: binding
# T7 construct: purchased Eurofins DiscoverX KINOMEscan (scanTK)
# TIE2 = target: T8, TIE2 (Homo sapiens, UniProt Q02763); experiment: KINOMEscan ScanTK; format: binding
# T8 construct: purchased Eurofins DiscoverX KINOMEscan (scanTK)
# ZAP70 = target: T9, ZAP70 (Homo sapiens, UniProt P43403); experiment: KINOMEscan ScanTK; format: binding
# T9 construct: purchased Eurofins DiscoverX KINOMEscan (scanTK)
# T9 sequence (P43403 1-619): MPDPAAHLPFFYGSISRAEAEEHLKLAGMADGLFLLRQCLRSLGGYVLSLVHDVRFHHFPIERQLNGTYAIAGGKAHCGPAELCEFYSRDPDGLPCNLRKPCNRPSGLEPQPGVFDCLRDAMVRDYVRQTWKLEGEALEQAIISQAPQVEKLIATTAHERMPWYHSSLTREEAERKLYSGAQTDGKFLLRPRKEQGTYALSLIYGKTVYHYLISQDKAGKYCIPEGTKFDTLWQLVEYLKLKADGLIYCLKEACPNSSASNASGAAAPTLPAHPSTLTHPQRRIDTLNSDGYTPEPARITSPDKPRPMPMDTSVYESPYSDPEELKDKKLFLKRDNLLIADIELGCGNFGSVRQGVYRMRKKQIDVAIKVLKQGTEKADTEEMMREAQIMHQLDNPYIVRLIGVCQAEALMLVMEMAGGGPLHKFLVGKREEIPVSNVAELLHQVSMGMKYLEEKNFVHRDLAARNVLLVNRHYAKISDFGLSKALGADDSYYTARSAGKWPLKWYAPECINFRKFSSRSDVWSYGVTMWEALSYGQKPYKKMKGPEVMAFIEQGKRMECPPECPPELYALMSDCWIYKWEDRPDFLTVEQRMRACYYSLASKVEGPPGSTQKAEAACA
# OCI-LY7 cells = experiment: Anti-IgM-induced Ca2+ flux assay; format: cell-based, human; conditions: 1 h pretreatment, 1000 nM or lower concentrations
# Method: The effects of compounds on Ca^2+ release were then analyzed following treatment of OCI-LY7 cells (derived from a diffuse large B-cell lymphoma (DLBCL)) with anti-IgM to cross-link surface IgM (sIgM). […] For 8a and 8d, we performed similar experiments at lower concentrations.
# Flow cytometry was performed using a FACS Canto II system (BD Biosciences). Data was acquired for 30 s before cells were stimulated with goat antihuman F(ab’)2 anti-IgM and data were acquired for a further 3.5 min. Cells were then treated with ionomycin (1 μM; Merck) and data were acquired for 2 min. Calcium responses were quantified by calculating area under the curve (AUC) in FlowJo (Becton Dickinson) from the point of addition of anti-IgM to the addition of ionomycin.
# [2] = @1000nM, read-out: % difference (compound - Ib %Control)
# T4 sequence (P10721 26-976 V559D): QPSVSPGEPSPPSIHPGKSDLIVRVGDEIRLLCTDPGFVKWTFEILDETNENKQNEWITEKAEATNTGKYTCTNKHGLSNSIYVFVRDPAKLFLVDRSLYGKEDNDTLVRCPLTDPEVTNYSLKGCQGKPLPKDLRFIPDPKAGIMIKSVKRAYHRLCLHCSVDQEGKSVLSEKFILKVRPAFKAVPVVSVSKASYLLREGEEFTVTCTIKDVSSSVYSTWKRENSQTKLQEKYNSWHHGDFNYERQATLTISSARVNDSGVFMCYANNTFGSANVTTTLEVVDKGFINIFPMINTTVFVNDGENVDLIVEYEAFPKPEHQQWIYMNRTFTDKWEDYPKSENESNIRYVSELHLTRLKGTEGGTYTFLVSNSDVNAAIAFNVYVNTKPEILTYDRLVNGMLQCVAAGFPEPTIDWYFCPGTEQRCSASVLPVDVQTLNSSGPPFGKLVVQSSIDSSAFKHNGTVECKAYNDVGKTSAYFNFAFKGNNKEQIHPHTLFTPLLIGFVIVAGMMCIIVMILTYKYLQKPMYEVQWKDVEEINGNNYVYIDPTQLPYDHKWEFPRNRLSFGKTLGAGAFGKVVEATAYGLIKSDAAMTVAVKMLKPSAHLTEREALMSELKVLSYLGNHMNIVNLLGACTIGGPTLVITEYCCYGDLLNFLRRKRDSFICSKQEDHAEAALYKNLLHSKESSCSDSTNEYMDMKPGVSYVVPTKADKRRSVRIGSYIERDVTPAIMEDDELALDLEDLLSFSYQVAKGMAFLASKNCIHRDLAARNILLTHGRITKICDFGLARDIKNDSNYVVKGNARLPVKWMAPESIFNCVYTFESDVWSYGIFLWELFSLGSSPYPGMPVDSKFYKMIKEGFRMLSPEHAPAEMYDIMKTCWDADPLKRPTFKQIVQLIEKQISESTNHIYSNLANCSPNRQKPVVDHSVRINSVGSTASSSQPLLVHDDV
# T6 sequence (P00533 25-1210 G719C): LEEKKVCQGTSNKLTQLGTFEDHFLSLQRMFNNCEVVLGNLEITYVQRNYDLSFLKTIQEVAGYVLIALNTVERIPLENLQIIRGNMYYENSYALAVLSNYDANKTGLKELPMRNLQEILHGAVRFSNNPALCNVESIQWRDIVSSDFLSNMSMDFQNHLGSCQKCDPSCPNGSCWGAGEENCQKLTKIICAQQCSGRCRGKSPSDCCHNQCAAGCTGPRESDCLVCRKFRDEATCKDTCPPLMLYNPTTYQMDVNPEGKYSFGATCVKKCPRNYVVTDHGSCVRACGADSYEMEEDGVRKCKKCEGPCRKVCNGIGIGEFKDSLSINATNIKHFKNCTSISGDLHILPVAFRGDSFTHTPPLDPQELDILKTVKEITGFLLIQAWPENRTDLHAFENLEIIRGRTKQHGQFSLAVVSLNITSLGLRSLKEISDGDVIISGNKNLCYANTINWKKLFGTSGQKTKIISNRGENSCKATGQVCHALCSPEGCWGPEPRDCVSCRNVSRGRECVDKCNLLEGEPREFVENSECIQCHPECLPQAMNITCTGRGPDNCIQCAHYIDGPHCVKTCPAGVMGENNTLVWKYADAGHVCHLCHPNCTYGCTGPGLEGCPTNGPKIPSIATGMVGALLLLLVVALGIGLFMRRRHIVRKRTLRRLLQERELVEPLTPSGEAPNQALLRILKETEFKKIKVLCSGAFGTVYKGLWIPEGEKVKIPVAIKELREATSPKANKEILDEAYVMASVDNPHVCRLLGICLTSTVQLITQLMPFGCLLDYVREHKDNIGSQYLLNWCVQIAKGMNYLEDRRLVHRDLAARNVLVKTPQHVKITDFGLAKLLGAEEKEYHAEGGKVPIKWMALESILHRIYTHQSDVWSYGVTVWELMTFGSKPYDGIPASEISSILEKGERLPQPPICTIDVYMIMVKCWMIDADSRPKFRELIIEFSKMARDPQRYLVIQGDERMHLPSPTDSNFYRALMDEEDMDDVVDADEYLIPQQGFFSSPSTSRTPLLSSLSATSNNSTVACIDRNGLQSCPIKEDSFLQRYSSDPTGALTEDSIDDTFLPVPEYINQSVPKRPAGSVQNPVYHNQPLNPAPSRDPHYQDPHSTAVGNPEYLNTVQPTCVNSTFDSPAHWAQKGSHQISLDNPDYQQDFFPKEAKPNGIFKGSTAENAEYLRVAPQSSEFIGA
# BTK, full length (2–659), sequence (Q06187 2-659): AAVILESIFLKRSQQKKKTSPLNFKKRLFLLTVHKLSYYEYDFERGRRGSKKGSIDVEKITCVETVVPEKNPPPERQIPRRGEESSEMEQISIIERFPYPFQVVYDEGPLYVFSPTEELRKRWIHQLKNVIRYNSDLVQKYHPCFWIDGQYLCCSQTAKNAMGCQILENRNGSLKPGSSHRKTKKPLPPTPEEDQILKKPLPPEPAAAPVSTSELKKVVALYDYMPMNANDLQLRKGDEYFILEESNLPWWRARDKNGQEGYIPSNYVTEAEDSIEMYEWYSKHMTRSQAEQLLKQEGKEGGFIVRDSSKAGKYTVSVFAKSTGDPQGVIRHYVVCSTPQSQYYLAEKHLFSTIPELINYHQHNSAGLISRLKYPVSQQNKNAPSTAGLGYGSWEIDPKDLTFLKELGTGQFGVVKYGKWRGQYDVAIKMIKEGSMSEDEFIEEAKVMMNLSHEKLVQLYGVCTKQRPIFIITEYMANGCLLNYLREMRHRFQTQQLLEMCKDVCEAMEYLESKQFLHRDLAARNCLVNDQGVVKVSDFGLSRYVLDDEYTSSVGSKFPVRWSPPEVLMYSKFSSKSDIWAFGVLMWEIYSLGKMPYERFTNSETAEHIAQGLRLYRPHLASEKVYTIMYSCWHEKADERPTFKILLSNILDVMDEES
# T5 sequence (Q06187 whole entry): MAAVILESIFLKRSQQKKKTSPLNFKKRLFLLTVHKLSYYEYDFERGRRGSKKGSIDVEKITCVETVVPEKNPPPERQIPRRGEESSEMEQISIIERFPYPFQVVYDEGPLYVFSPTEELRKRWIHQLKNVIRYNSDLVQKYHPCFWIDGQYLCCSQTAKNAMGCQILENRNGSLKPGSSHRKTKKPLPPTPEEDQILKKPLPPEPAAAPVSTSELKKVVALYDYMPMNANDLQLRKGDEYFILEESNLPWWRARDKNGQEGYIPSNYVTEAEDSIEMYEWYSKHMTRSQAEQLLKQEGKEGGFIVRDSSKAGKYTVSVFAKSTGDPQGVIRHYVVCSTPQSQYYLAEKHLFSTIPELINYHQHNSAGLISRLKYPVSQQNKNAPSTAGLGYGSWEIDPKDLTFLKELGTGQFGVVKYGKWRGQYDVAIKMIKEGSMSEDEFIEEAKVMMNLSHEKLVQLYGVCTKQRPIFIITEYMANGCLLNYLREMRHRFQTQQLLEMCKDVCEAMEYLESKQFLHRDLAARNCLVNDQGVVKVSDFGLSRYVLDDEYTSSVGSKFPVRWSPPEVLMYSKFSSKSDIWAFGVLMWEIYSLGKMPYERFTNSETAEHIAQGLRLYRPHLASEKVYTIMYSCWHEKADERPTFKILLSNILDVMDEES
# T8 sequence (Q02763 23-1124): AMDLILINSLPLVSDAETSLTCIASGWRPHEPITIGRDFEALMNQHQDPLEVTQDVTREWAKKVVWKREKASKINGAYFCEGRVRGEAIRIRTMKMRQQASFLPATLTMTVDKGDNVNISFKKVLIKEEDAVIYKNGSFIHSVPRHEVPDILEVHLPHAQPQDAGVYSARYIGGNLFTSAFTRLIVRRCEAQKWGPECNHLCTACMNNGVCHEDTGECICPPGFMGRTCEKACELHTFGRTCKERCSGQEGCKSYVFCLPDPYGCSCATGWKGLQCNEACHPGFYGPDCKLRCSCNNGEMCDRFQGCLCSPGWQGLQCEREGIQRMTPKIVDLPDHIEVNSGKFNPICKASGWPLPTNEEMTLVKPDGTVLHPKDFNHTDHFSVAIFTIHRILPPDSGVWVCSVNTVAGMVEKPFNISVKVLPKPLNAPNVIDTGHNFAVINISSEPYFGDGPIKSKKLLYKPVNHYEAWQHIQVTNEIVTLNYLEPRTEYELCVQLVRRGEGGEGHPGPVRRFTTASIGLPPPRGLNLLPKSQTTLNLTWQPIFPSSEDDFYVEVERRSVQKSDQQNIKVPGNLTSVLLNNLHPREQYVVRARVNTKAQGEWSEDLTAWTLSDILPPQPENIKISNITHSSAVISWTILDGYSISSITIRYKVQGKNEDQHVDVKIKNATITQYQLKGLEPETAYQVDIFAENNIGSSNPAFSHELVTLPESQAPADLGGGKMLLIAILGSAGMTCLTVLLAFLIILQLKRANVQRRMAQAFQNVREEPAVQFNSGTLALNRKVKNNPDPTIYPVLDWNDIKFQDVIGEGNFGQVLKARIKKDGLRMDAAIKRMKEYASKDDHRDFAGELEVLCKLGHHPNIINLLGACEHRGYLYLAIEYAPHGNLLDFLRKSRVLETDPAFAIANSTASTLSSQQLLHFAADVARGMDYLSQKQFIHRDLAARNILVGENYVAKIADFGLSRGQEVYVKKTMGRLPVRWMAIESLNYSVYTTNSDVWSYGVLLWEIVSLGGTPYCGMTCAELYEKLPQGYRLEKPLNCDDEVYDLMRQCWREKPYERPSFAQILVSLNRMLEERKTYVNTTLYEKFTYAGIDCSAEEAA
# T3 sequence (P23458 875-1154 limits assumed): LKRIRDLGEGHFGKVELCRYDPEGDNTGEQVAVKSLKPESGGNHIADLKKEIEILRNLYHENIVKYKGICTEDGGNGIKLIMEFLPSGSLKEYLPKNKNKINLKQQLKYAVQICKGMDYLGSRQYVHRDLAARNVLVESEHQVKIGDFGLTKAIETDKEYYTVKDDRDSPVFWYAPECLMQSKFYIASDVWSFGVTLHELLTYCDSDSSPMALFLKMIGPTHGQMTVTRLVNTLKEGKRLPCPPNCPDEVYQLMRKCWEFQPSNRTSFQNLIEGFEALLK
Structure (SMILES),"remaining binding at 1 µM (CSK; @1000nM, read-out: %Control) [%]",remaining binding at 1 µM (CSK; read-out: %Control @1000nM) [%],"remaining binding at 1 µM (EPHB4; @1000nM, read-out: %Control) [%]",remaining binding at 1 µM (EPHB4; read-out: %Control @1000nM) [%],"remaining binding at 1 µM ([1]; @1000nM, read-out: %Control) [%]",remaining binding at 1 µM ([1]; read-out: %Control @1000nM) [%],"remaining binding at 1 µM (KIT(V559D); @1000nM, read-out: %Control) [%]",remaining binding at 1 µM (KIT(V559D); read-out: %Control @1000nM) [%],"Ki (BTK, full length (2–659); BTK) [nM]","kinact (BTK, full length (2–659); BTK) [s⁻¹]",remaining binding at 1 µM (BTK; [2]) [%],"remaining binding at 1 µM (BTK; @1000nM, read-out: %Control) [%]",remaining binding at 1 µM (BTK; read-out: %Control @1000nM) [%],inhibition at 1 µM (BTK) [%],difference in %Control from reference compound Ib at 1 µM (CSK; @1000nM) [%],difference in %Control vs compound Ib at 1 µM (EGFR(G719C); @1000nM) [%],"remaining binding at 1 µM (EGFR(G719C); @1000nM, read-out: %Control) [%]",remaining binding at 1 µM (EGFR(G719C); read-out: %Control @1000nM) [%],"difference in % of control versus compound Ib at 1 µM (EGFR(L858R,T790M); @1000nM) [%]","remaining binding at 1 µM (EGFR(L858R,T790M); @1000nM, read-out: %Control) [%]",other results
"C=CC(=O)N1CCC[C@@H](n2nc(-c3ccc(Oc4ccccc4)cc3)c3c(N)ncnc32)C1 [Compound 1g, Ibrutinib, reference compound]",4.5,4.5,100,100,94,94,27,27,,,,,,,,,,,,,
"COC(=O)c1cnc(S(C)(=O)=O)nc1N1CCCC(n2nc(-c3ccc(Oc4ccccc4)cc3)c3c(N)ncnc32)C1 (stereo not drawn) [Compound 8b, Methyl 4-(3-(4-Amino-3-(4-phenoxyphenyl)-1H-pyrazolo[3,4-d]pyrimidin-1-yl)piperidin-1-yl)-2-(methylsulfonyl)pyrimidine-5-carboxylate]",26,26,98,98,97,97,75,75,24.2 ± 0.95,0.00792 ± 0.00019,0.75,0.75,0.75,> 99,21.5,1.7,2.8,2.8,69,79,"kinact/KI (BTK, full length (2–659); BTK, read-out: Kinact/Ki): 328000 M⁻¹ s⁻¹; remaining binding at 1 µM (EGFR(L858R,T790M); read-out: %Control @1000nM): 79%; difference in %Control from compound Ib at 1 µM (EPHB4; @1000nM): -2%; difference in %Control versus compound Ib at 1 µM ([1]; @1000nM): 3%; remaining binding at 1 µM (TIE2; @1000nM, read-out: %Control): 72%; remaining binding at 1 µM (TIE2; read-out: %Control @1000nM): 72%; remaining binding at 1 µM (ZAP70; @1000nM, read-out: %Control): 94%; remaining binding at 1 µM (ZAP70; read-out: %Control @1000nM): 94%"
"CNC(=O)c1cnc(S(C)(=O)=O)nc1N1CCCC(n2nc(-c3ccc(Oc4ccccc4)cc3)c3c(N)ncnc32)C1 (stereo not drawn) [Compound 8d, 4-(3-(4-Amino-3-(4-phenoxyphenyl)-1H-pyrazolo[3,4-d]pyrimidin-1-yl)piperidin-1-yl)-N-methyl-2-(methylsulfonyl)pyrimidine-5-carboxamide]",8.1,8.1,100,100,100,100,60,60,5.07 ± 0.36,0.0126 ± 0.00067,0,0,0,> 99,3.6,-0.45,0.65,0.65,49,59,"kinact/KI (BTK, full length (2–659)): 2.49e+06 M⁻¹ s⁻¹; fold reduction of Kinact/Ki (potency) relative to 1g (BTK, full length (2–659); BTK): 3 fold; effect on anti-IgM-induced Ca2+ flux (OCI-LY7 cells): maintained for these compounds at concentrations down to 250 nM; remaining binding at 1 µM (EGFR(L858R,T790M); read-out: %Control @1000nM): 59%; difference in %Control from compound Ib at 1 µM (EPHB4; @1000nM): 0%; difference in %Control versus compound Ib at 1 µM ([1]; @1000nM): 6%; remaining binding at 1 µM (TIE2; @1000nM, read-out: %Control): 74%; remaining binding at 1 µM (TIE2; read-out: %Control @1000nM): 74%; remaining binding at 1 µM (ZAP70; @1000nM, read-out: %Control): 100%; remaining binding at 1 µM (ZAP70; read-out: %Control @1000nM): 100%"
